From patent US7482358B2, “Imidazoline compounds” (Banyu Pharmaceutical Co., Ltd., priority 2000, dated 2009)
Read-outs that look alike come from different tables or passages of the source.

How the values were obtained:
human NPY Y5 receptor = biological target: T1, human NPY Y5 receptor (Homo sapiens, UniProt Q15761); test: NPY binding inhibition test ([125I] peptide YY binding to membranes of cells expressing NPY Y5 receptor); settings: against specific [125I] peptide YY binding, 25° C., 2 hours; read-out: IC50, inhibitory activities on NPY receptor binding
T1 construct: expressed in transfected cells; host or cells: COS-7, CHO and LM(tk-)
T1 sequence (Q15761 1-445): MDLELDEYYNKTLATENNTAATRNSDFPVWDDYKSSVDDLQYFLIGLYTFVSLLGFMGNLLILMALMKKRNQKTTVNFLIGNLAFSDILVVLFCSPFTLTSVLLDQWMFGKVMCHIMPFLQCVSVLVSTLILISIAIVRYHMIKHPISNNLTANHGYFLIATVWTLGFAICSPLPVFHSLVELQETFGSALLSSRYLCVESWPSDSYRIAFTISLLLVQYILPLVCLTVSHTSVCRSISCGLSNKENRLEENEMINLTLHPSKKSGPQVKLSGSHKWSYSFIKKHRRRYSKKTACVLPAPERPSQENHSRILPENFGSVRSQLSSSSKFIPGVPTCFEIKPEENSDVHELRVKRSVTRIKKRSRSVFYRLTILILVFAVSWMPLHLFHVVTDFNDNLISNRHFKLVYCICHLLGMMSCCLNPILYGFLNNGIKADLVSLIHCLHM
Method: These obtained expression vectors were transfected to host cells COS-7, CHO and LM(tk-)(American Type Culture Collection) by cationic lipid method (Confer Proceedings of the National Academy of Sciences of the United States of America, vol. 84:7413(1987)) to give recombinant cells which express NPY Y5 receptor.
A membrane sample prepared from the cells which expressed NPY Y5 receptor was incubated together with a test compound and (^125I) peptide YY (made by NEN) (20,00 cpm) in an assay buffer (25 mM Tris buffer, pH7.4, containing 10 mM magnesium chloride, 1 mM phenylmethylsulfonyl fluoride, 0.1% bacitracin and 0.5% bovine serum albumin) at 25° C. for 2 hours, then filtered through a glass filter GF/C and washed with 5 mM Tris buffer (pH7.4) containing 0.3% BSA. The radioactivity on the glass filter was measured. Nonspecific binding was measured in the presence of 1 μM peptide YY and a 50% Inhibitory Concentration (IC50) of the test compound against specific peptide YY binding was determined (Confer Endocrinology, vol. 131: 2090(1992)).

[1] = Test for pharmacokinetics; format: in vivo; settings: male SD rats, overnight fasting, oral or intravenous
Method: Pharmacological Test 3 (Test for Pharmacokinetics)
The tested compound was administered orally or intravenously to male SD rats (7-10 weeks old, 200-400 g) under overnight fasting condition, and about 100 μL of blood was taken from tail vein using a heparinized capillary at predefined time points. The blood samples were separated by centrifuge (4° C., 6,000 rpm, for 10 minutes) to obtain plasma. To the plasma, 3-fold volume of ethanol containing the internal standard substances was added and the mixture was stirred, then left at −20° C. for 20 minutes, followed by centrifugation (4° C., 10,000 rpm for 10 minutes). The supernatant was analyzed by LC/MS/MS and then the concentration of the test compound in plasma was measured by the relative calibration curve method.

[2] = Brain and cerebrospinal fluid penetration test; format: in vivo, male SD rats; settings: 2 hours after oral administration (10 mg/kg), rat; for concentration at 2 h: male, Sprague-Dawley
Method: Pharmacological Test 4 (Brain and Cerebrospinal Fluid Penetration Test)
The tested compound was administered orally or intravenously to male SD rats (7-10 weeks old, 200-400 g). The rats anesthetized with ether, and the all blood were taken at predefined time points with a heparinized syringe from the abdominal aorta. Further, the rats were cut the skin of occipital region of head and inserted a 30 G dental needle between cervical vertebrae, into subarachnoid cavity. And then, 50-100 μL of cerebrospinal fluid was collected in a 1 mL syringe through a tube connected with the 30G dental needle, followed by taking out the brain. To the plasma obtained from the centrifuged blood sample (4° C., 6,000 rpm, for 10 minutes), 3-fold volume of ethanol including the internal standard substances was added and the mixture was stirred. To the brain sample, 2 mL of water was added and the mixture was homogenized. To an aliquot of the homogenized mixture, 3-fold volume of ethanol including the internal standard substances was added, followed by stirring. To the cerebrospinal fluid, 3-fold volume of ethanol containing the internal standard substances was added, followed by stirring. The above samples were left at −20° C. for 20 minutes and separated by centrifuge (4° C., 12,000 g, for 10 minutes). The supernatant was analyzed by LC/MS/MS and then each concentration in plasma, brain and cerebrospinal fluid was measured by the relative calibration curve method.

melting point [°C]	SMILES	further results
156 to 160	Fc1ccc(C2(c3ccc(F)cc3)CNC(c3cccs3)=N2)cc1 [Example 9-7, 4,4-bis(4-fluorophenyl)-2-(2-thienyl)-2-imidazoline]	
169 to 171	N#Cc1ccnc(C2=NC(c3ccc(F)cc3)(c3ccnc(F)c3)CN2)c1 (stereo not shown) [Example 14-2, 2-(4-cyano-2-pyridyl)-4-(4-fluorophenyl)-4-(2-fluoro-4-pyridyl)-2-imidazoline]	
114 to 117	Fc1ccc(C2(c3ccc(F)cc3)CNC(c3cccc(OC(F)(F)F)c3)=N2)cc1 [Example 9-4, 4,4-bis(4-fluorophenyl)-2-(3-trifluoromethoxyphenyl)-2-imidazoline]	
160 to 163	Fc1ccc(C2(c3ccc(F)cc3)CNC(c3ccsc3)=N2)cc1 [Example 9-10, 4,4-bis(4-fluorophenyl)-2-(3-thienyl)-2-imidazoline]	
148 to 149	Cc1cccc(C2=NC(c3ccc(F)cc3)(c3ccc(F)cc3)CN2)c1 [Example 9-6, 4,4-bis(4-fluorophenyl)-2-(3-methylphenyl)-2-imidazoline]	

The remaining lines, values behind:

SMILES	melting point [°C]	further results
O=[N+]([O-])c1cccc(C2=NC(c3ccc(F)cc3)(c3ccc(F)cc3)CN2)c1 [Example 5-13, 4,4-bis(4-fluorophenyl)-2-(3-nitrophenyl)-2-imidazoline]	156 to 158	
N#Cc1cccc(C2=NC(c3ccccc3)(C3CCCCC3)CN2)c1 (stereo not shown) [Example 5-42, 2-(3-cyanophenyl)-4-cyclohexyl-4-phenyl-2-imidazoline]	151 to 152	
N#Cc1cccc(C2=NC(c3ccccc3)(C3CCC3)CN2)c1 (stereo not shown) [Example 5-46, 2-(3-cyanophenyl)-4-cyclobutyl-4-phenyl-2-imidazoline]	117 to 118	
N#Cc1cccc(C2=NC(c3cccc(F)c3)(c3cccc(F)c3)CN2)c1 [Example 5-1, 2-(3-cyanophenyl)-4,4-bis(3-fluorophenyl)-2-imidazoline]		IC50 (human NPY Y5 receptor): 2.3 nM
CC1NC(c2cnccn2)=NC1(c1ccc(F)cc1)c1ccc(F)cc1 (stereo not shown) [Example 7, 4,4-bis(4-fluorophenyl)-5-methyl-2-pyrazinyl-2-imidazoline]		IC50 (human NPY Y5 receptor): 3.4 nM; half-life ([1]; Sprague-Dawley, rat, plasma, read-out: half-life in blood (converted)): 5.1 h; biological availability ratio [1]: 35%; cerebral concentration [2]: 2.95 nM/g; concentration at 2 h ([2]; cerebrospinal fluid, read-out: cerebrospinal concentration): 32 nM; concentration at 2 h ([2]; plasma, read-out: plasma concentration): 730 nM
CS(=O)(=O)c1cccc(C2=NC(c3ccc(F)cc3)(c3ccc(F)cc3)CN2)c1 [Example 5-34, 4,4-bis(4-fluorophenyl)-2-(3-methylsulfonylphenyl)-2-imidazoline]	209 to 212	
CN(C)c1ccc(C2(c3ccccc3)CNC(c3cccc(C#N)c3)=N2)cc1 (stereo not shown) [Example 5-27, 2-(3-cyanophenyl)-4-(4-dimethylaminophenyl)-4-phenyl-2-imidazoline]	210 to 213	
Cc1ccc(C2(c3ccccc3)CNC(c3cccc(C#N)c3)=N2)cc1 (stereo not shown) [Example 5-11, 2-(3-cyanophenyl)-4-(4-methylphenyl)-4-phenyl-2-imidazoline]	179 to 180	
c1ccc(C2(c3ccccc3)CNC(c3cnccn3)=N2)cc1 [Example 5-31, 4,4-diphenyl-2-pyrazinyl-2-imidazoline]	183 to 184	
